Calls of active or inactive are those of the source.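 The calls were made as follows: active = GFP ratio vs DMSO below 0.65 in a strain, using the primary screen cutoff set for that strain's protein target; inactive = the rest.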
Legend:
Test in all cases: GFP reporter expression in TORC1-bypass yeast, mechanism study for yeast TOR pathway modulator project, S. cerevisiae, TORC1 bypass vs wild-type strains (AID 504479)
Conditions in all cases: fluorescence ratio vs DMSO, at 10 µM
[1] = system: YCL025C
[2] = system: YNL142W
[3] = system: YKL103C
[4] = system: BY4741
[5] = system: YCR005C
[6] = system: YBR084C-A
[7] = AGP1-GFP in TORC1 bypass strain, stronger effect = higher value
[8] = MEP2-GFP in TORC1 bypass strain, stronger effect = higher value
[9] = LAP4-GFP in TORC1 bypass strain, stronger effect = higher value
[10] = CIT2-GFP in TORC1 bypass strain, stronger effect = higher value
[11] = RPL19A-GFP in TORC1 bypass strain, stronger effect = lower value

SMILES | GFP ratio vs DMSO [1, 7] | GFP ratio vs DMSO [1] | GFP ratio vs DMSO [2, 8] | GFP ratio vs DMSO [2] | GFP ratio vs DMSO [3, 9] | GFP ratio vs DMSO [3] | GFP ratio vs DMSO [4] | GFP ratio vs DMSO [5, 10] | GFP ratio vs DMSO [5] | GFP ratio vs DMSO [6, 11] | GFP ratio vs DMSO [6]
CC(C)(C)C(=O)NC(=S)NNC(=O)c1ccc(-c2ccccc2)cc1 | 1.03 | 1.07 (inactive) | 1.27 | 1.51 (inactive) | 1.47 | 2.48 | 1.36 (inactive) | 0.935 | 1.37 (inactive) | 1.2 | 1.25 (inactive)
Cc1ccc(S(=O)(=O)c2ccc([N+](=O)[O-])cn2)cc1 | 0.813 | 1.11 (inactive) | 0.948 | 1.29 (inactive) | 1.67 | 2.26 | 0.941 (inactive) | 0.861 | 1.05 (inactive) | 0.938 | 0.929 (inactive)
Cc1ccc(C(c2cc(Cl)c3cccnc3c2O)N2CCN(C)CC2)cc1 (stereo not given) | 0.652 | 0.76 (inactive) | 1.03 | 0.862 (inactive) | 1.23 | 1.63 | 0.736 (inactive) | 0.583 | 0.808 (inactive) | 0.949 | 0.938 (inactive)
COc1ccc(/C=C/C(=O)NC(=S)NNC(=O)c2cnccn2)cc1 | 0.694 | 0.807 (inactive) | 1.03 | 1.14 (inactive) | 1.18 | 1.51 | 0.962 (inactive) | 0.87 | 1.03 (inactive) | 0.981 | 0.94 (inactive)
O=C(Oc1c(Cl)cc(Cl)c2cccnc12)c1cccc([N+](=O)[O-])c1 | 0.717 | 0.875 (inactive) | 1.01 | 0.95 (inactive) | 1.15 | 1.68 | 0.774 (inactive) | 0.791 | 1.07 (inactive) | 1.12 | 1.18 (inactive)

From PubChem BioAssay AID504479 (NMMLSC, 2011)
